Experimental findings from ChEMBL document CHEMBL1159131, “Structural modifications of 6-naphthalene-2-carboxylate retinoids” (Bioorg Med Chem Lett, 1996) are described below.

Activity calls are given as the source filed them. The calls are words filed in the database; no cut-off is given here.

Assay [1] concerns the target T1, Retinoic acid receptor alpha (Homo sapiens) (UniProt P10276).
T1 sequence (whole entry): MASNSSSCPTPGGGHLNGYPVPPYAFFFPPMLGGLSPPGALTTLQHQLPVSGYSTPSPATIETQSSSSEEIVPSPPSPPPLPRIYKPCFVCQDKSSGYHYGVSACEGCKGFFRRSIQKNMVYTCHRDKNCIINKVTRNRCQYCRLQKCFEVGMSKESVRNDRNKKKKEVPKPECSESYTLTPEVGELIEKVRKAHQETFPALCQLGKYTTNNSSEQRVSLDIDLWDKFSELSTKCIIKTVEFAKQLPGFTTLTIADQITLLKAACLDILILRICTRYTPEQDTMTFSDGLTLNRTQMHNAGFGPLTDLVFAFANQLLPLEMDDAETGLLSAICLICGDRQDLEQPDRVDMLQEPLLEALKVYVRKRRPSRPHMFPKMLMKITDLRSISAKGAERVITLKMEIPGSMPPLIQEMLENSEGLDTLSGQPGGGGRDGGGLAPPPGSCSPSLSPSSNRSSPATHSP
Kind of assay: Maximum retinoic acid receptor (RAR)-alpha transactivation activity relative to retinoic acid at 10e-6 M.

Assay [2] has as its target T2, Retinoic acid receptor beta (Homo sapiens) (UniProt P10826).
T2 sequence (whole entry): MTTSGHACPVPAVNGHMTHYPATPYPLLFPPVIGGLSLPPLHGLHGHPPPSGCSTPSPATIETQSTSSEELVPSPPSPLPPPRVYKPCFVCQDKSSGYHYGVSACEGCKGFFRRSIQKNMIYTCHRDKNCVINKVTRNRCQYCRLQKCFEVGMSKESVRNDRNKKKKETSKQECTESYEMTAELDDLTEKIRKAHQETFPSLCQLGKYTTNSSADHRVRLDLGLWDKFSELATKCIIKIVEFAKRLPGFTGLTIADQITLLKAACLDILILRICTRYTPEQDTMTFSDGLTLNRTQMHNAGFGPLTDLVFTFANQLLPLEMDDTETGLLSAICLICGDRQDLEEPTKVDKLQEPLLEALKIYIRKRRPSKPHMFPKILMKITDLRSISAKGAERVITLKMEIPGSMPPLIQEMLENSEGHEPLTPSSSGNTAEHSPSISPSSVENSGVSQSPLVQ
Kind of assay: Transcriptional activation activity against retinoic acid receptor RAR beta; Not active.

The target in assay [3] is T1, Retinoic acid receptor alpha (Homo sapiens). Kind of assay: Transcriptional activation activity against retinoic acid receptor RAR alpha; Not active.
Assay [4] has as its target T2, Retinoic acid receptor beta (Homo sapiens). Put plainly: Maximum retinoic acid receptor (RAR)-beta transactivation activity relative to retinoic acid at 10e-6 M.
The target is the same in assay [5]. Put plainly: Transactivation activity at retinoic acid receptor beta.
Assay [6] has as its target T1, Retinoic acid receptor alpha (Homo sapiens). Put plainly: Transcriptional activation activity against retinoic acid receptor RAR alpha.
The target in assay [7] is T3, Retinoic acid receptor gamma (Homo sapiens) (UniProt P13631).
T3 sequence (whole entry): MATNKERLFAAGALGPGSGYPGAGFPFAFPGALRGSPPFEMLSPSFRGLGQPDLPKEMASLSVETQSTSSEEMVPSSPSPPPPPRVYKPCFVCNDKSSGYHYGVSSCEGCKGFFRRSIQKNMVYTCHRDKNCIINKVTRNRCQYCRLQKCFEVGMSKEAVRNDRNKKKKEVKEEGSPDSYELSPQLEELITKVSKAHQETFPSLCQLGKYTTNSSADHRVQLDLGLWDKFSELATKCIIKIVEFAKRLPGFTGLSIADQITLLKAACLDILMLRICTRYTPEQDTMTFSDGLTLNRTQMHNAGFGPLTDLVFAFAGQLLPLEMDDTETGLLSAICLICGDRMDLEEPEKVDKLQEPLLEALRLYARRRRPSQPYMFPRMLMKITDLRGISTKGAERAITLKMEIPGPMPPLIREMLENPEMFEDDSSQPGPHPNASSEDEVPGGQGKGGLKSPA
Put plainly: Transcriptional activation activity against retinoic acid receptor RAR gamma; Not active.

As for `CC1(C)CCC(C)(C)c2cc(C(O)c3ccc4cc(C(=O)O)ccc4c3)c(O)cc21` (stereo unspecified), the Max was 0% in assay [1] and 18% in assay [4]. Further, the EC50 ratio result in assay [2] and in assay [3] was “inactive” throughout.

Consider `COc1cc2c(cc1C(=O)c1ccc3cc(C(=O)O)ccc3c1)C(C)(C)CCC2(C)C`, for which the Max in assay [1] turned out to be 23%; in assay [4], 61%. The EC50 ratio in assay [5] was 14; in assay [6], 8.

As to `CC1(C)CCC(C)(C)c2cc(C(=O)c3ccc4cc(C(=O)O)ccc4c3)c(O)cc21`, the Max in assay [1] came out at 44%; in assay [4], 76%. Also, the EC50 ratio in assay [5] is 7.5; in assay [6], 25.

As to `CC1(C)CCC(C)(C)c2c1cc(O)c(C(=O)c1ccc3cc(C(=O)O)ccc3c1)c2F`, the Max in assay [1] was 46%; in assay [4] it was 87%. In addition, the figures for the EC50 ratio in assay [5] and in assay [6] were 6.7 and 100, respectively.

As for `CC1(C)CCC(C)(C)c2cc([S+]([O-])/C=C/c3ccc(C(=O)O)cc3)ccc21` (stereo unspecified), the Max in assay [1] amounted to 42%; in assay [4] it was 96%. Also, the EC50 ratio in assay [5] turned out to be 40; in assay [6], 38.

For `CC1(C)CCC(C)(C)c2cc(S/C=C/c3ccc(C(=O)O)cc3)ccc21`, the figures for the Max in assay [1] and in assay [4] were 118% and 158%, respectively. The figures for the EC50 ratio in assay [5] and in assay [6] were 0.8 and 1.3, respectively.

On to `CC1(C)CCC(C)(C)c2cc(Nc3ccc4cc(C(=O)O)ccc4c3)ccc21`, for which the Max turned out to be 27% in assay [1] and 92% in assay [4]. Also, the EC50 ratio in assay [5] came out at 17; in assay [6] it was 25.

Consider `CC1(C)CCC(C)(C)c2cc(C(O)c3ccc4cc(C(=O)O)ccc4c3)c(F)cc21` (stereo unspecified), for which the figures for the Max in assay [1] and in assay [4] were 0% and 30%, respectively. For the same compound, the EC50 ratio in assay [5] amounted to 133. The EC50 ratio result in assay [3] is “inactive”.

Take `COc1c(C(=O)c2ccc3c(c2)C(C)(C)CCC3(C)C)ccc2cc(C(=O)O)ccc12`: the EC50 ratio result in assay [7], in assay [2] and in assay [3] was “inactive” throughout. Also, the Max in assay [1] and in assay [4] was 0% each time.

On to `CC1(C)CCC(C)(C)c2cc(S(=O)(=O)c3ccc4cc(C(=O)O)ccc4c3)ccc21`, for which the figures for the Max in assay [1] and in assay [4] were 0% and 32%, respectively. Also, the EC50 ratio in assay [5] was 133. Besides, the EC50 ratio entry in assay [3] is “inactive”.

Consider `Cc1cc2c(cc1C(=O)c1ccc3cc(C(=O)O)ccc3c1)C(C)(C)CCC2(C)C`, for which the Max was determined as 26% in assay [1] and 81% in assay [4]. In addition, the EC50 ratio in assay [5] and in assay [6] was 25 in each case.

Take `CC1(C)CCC(C)(C)c2c(F)cc(C(=O)c3ccc4cc(C(=O)O)ccc4c3)cc21`: the Max came out at 63% in assay [1] and 81% in assay [4]. Moreover, the EC50 ratio worked out at 4 in assay [5] and 10 in assay [6].

Take `CC1(C)CCC(C)(C)c2c1ccc(C(O)c1ccc3cc(C(=O)O)ccc3c1)c2F` (stereo unspecified): the Max in assay [1] was 0%; in assay [4] it was 74%. The EC50 ratio in assay [5] is 133. Further, the EC50 ratio result in assay [3] was “inactive”.

Regarding `CC1(C)CCC(C)(C)c2cc(C(=O)c3ccc4cc(C(=O)O)ccc4c3)c(F)cc21`, the results for the Max in assay [1] and in assay [4] were 34% and 81%, respectively. Further, the EC50 ratio in assay [5] came to 15; in assay [6] it was 25.

Turning to `CC1(C)CCC(C)(C)c2cc([S+]([O-])c3ccc4cc(C(=O)O)ccc4c3)ccc21` (stereo unspecified), the Max in assay [1] is 0%; in assay [4] it was 52%. Further, in assay [5], the EC50 ratio is 167. In addition, the EC50 ratio entry in assay [3] is “inactive”.

On to `CC1(C)CCC(C)(C)c2cc(C(=O)c3ccc4cc(C(=O)O)ccc4c3O)ccc21`, for which the EC50 ratio result in assay [7], in assay [2] and in assay [3] was “inactive” each time. The Max in assay [1] and in assay [4] was 0% throughout.

For `Cc1cc2c(cc1C(O)c1ccc3cc(C(=O)O)ccc3c1)C(C)(C)CCC2(C)C` (stereo unspecified), the results for the Max in assay [1] and in assay [4] were 0% and 96%, respectively. For the same compound, the EC50 ratio in assay [5] was 100. Moreover, in assay [3], the EC50 ratio entry was “inactive”.

With `CC1(C)CCC(C)(C)c2cc(Sc3ccc4cc(C(=O)O)ccc4c3)ccc21`, the Max amounted to 45% in assay [1] and 88% in assay [4]. Further, the results for the EC50 ratio in assay [5] and in assay [6] were 10 and 25, respectively.

`CC1(C)CCC(C)(C)c2c(F)cc(C(O)c3ccc4cc(C(=O)O)ccc4c3)cc21` (stereo unspecified): the EC50 ratio entry in assay [7], in assay [2] and in assay [3] was “inactive” in each case. Further, the Max in assay [1] and in assay [4] was 0% throughout.

As to `CC1(C)CCC(C)(C)c2cc(Oc3ccc4cc(C(=O)O)ccc4c3)ccc21`, the Max in assay [1] is 56%; in assay [4], 120%. Besides, the EC50 ratio in assay [5] came to 20; in assay [6], 63.

Consider `CC1(C)CCC(C)(C)c2cc(C(O)c3ccc4cc(C(=O)O)ccc4c3)ccc21` (stereo unspecified), for which the Max in assay [1] was found to be 0%; in assay [4] it was 77%.

Consider `CC1(C)CCC(C)(C)c2cc(S(=O)(=O)/C=C/c3ccc(C(=O)O)cc3)ccc21`, for which the values for the Max in assay [1] and in assay [4] were 0% and 35%, respectively. The EC50 ratio in assay [5] worked out at 200. The EC50 ratio entry in assay [3] is “inactive”.

In the case of `CC1(C)CCC(C)(C)c2cc(C(=O)/C=C/c3ccc(C(=O)O)cc3)ccc21`, the EC50 ratio in assay [5] was 1.2; in assay [6], 0.7.

For the compound `COc1c(C(=O)c2ccc3cc(C(=O)O)ccc3c2)ccc2c1C(C)(C)CCC2(C)C`, the EC50 ratio result in assay [7], in assay [2] and in assay [3] was “inactive” in each case. Further, the Max in assay [1] and in assay [4] was 0% throughout.
